Where “and” joins values, the source holds several entries; their conditions need not be identical. Identical values can stand only once. Counter-ions that a name gives are not always drawn. Like-named read-outs stand apart in the source and are kept apart here.
Columns and labels:
[1] = biological target: muscarinic cholinergic receptor; assay type: binding, rat; conditions: pH 7.4
[2] = biological target: muscarinic cholinergic receptor; experiment: [^3 H]-Cis-methyldioxolane (^3 H-CD) Binding Assay (High Affinity); conditions: rat cerebral cortex, ^3 H-CD 1.0 nM, 25° C., 120 minutes, pH 7.4; high affinity agonist binding
[3] = rat cerebral cortex, ^3 H-QNB 0.25 nM, 25° C., 120 minutes

O=C1[C@@H](O)CCN1CC#CCn1ccnc1 [(S)-3-Hydroxy-1-[4(1H-imidazol-1-yl)-2-butynyl]-2-pyrrolidinone]
Ki [1, 3]: > 100 µM
Ki [2]: 0.12 µM

CCN(CC)CC#CCN1CC[C@H](O[Si](C)(C)C(C)(C)C)C1=O [(S)-1-[4-(diethylamino)-2-butynyl]-3-[[(1,1-dimethylethyl)dimethylsily]oxy]-2-pyrrolidinone]
Ki [1, 3]: 7.6 µM
Ki [2]: 15.4 µM

CCN(CC)CC#CCN [N,N-Diethyl-2-butyne-1,4-diamine dihydrochloride]
Ki [1, 3]: > 100 µM
Ki [2]: > 100 µM

CN(C)C(=O)O[C@H]1CCN(CC#CCN2CCCC2)C1=O [(S)-Dimethylcarbamic acid 2-oxo-1-[4-(1-pyrrolidinyl)-2-butynyl]-3-pyrrolidinyl ester]
Ki ([1]; read-out: ^3 H-QNB Ki): 40.3 µM
Ki [2]: 9.56 µM

[N-]=[N+]=N[C@@H]1CCN(CC#CCN2CCCC2)C1=O [(R)-3-Azido-1-[4-(1-pyrrolidinyl)-2-butynyl]-2-pyrrolidinone]
Ki [1, 3]: 28 µM
Ki [2]: 0.21 µM

CN(C)CC#CCN1CC[C@H](OC(=O)C(C)(C)C)C1=O [(S)-2,2-Dimethylpropanoic acid 1-[4-(dimethylamino)-2-butynyl]-2-oxo-3-pyrrolidinyl ester]
Ki [1, 3]: 484 µM
Ki [2]: 38.8 µM

CCCCCCCCNC(=O)O[C@@H]1CCN(CC#CC[N+](C)(C)C)C1=O [(R)-N,N, N-Trimethyl-4-[3-[[(octylamino)carbonyl]oxy]-2-oxo-1-pyrrolidinyl]-2-butyn-1-aminium iodide]
Ki [1, 3]: 0.5 µM
Ki [2]: 0.49 µM

CC(=O)O[C@@H]1CCN(CC#CCN(C)CCO)C1=O [(R)-3-(Acetyloxy)-1-[4-[2-(hydroxyethyl)methylamino]-2-butynyl]-2-pyrrolidinone]
Ki [1, 3]: > 100 µM
Ki [2]: 28.3 µM

CC(C)(C)[Si](C)(C)OC[C@@H]1CCCN1CC#CCN1CC[C@H](O)C1=O [[S-(R*,R*)]-1-[4-[2-[[[(1,1-Dimethylethyl)dimethylsilyl]-oxy]methyl]-1-pyrrolidinyl]-2-butynyl]-3-hydroxy-2-pyrrolidinone]
Ki [1, 3]: 0.4 µM
Ki [2]: 0.14 µM

CCCCCCCCCC(=O)O[C@H]1CCN(CC#CC[N+](C)(C)C)C1=O [(S)-N,N, N-Trimethyl-4-[2-oxo-3-[(1-oxodecyl)oxy]-1-pyrrolidinyl-2-butyn-1-aminium iodide]
Ki [1, 3]: 0.003 µM
Ki [2]: 0.156 µM

CC(C)(C)[Si](C)(C)O[C@H]1CCN(CC#CCN2CCC2)C1=O [(S)-1-[4-(1-Azetidinyl)-2-butynyl]-3-[[(1,1-dimethylethyl)-dimethylsilyl]oxy]-2-pyrrolidinone]
Ki [1, 3]: 5.8 µM
Ki [2]: 5.6 µM

CC(C)(C)[Si](C)(C)OC[C@@H]1CCCN1CC#CCNC(=O)C(F)(F)F [(S)-N-[4-[2-[[[(1,1-Dimethylethyl]-dimethylsilyl]oxy]-methyl]-1-pyrrolidinyl]-2-butynyl]-2,2,2-trifluoroacetamide]
Ki [1, 3]: > 100 µM
Ki [2]: 41.4 µM

CC(C)(C)[Si](C)(C)O[C@H]1CCN(CC#CCn2ccnc2)C1=O [(S)-3-[[(1,1-Dimethylethyl)dimethylsilyl]oxy]-1-[4-(1H-imidazol-1-yl)-2-butynyl]-2-pyrrolidinone]
Ki [1, 3]: > 100 µM
Ki [2]: 24.3 µM

CCN(CC)CC#CCN1CCC(C)C1=O (racemic) [Racemic 1-[4-(1-Diethylamino)-2-butynyl]-3-methyl-2-pyrrolidinone]
Ki [1, 3]: 6 µM
Ki [2]: 5.1 µM

CC(C)(C)[Si](C)(C)O[C@@H]1CCN(CC#CCn2ccnc2)C1=O [(R)-3-[[(1,1-Dimethylethyl)-dimethylsilyl]oxy]-1-[4-(1H-imidazol-1-yl)-2-butynyl]-2-pyrrolidinone]
Ki [1, 3]: > 100 µM
Ki [2]: 14 µM

CN(C)CC#CCN1CC[C@@H](N=[N+]=[N-])C1=O [(R)-3-Azido-1-[4-(dimethylamino)-2-butynyl]-2-pyrrolidinone]
Ki [1, 3]: > 100 µM
Ki [2]: 0.5 µM

CN(C)CC#CCN1CC[C@H](N=[N+]=[N-])C1=O [(S)-3-Azido-1-[4-(dimethylamino)-2-butynyl]-2-pyrrolidinone]
Ki [1, 3]: > 100 µM
Ki [2]: 0.63 µM

CN(CC#CCN1CC[C@H](O)C1=O)CCO [(S)-3-Hydroxy-1-[4-[(2-hydroxyethyl)methylamino]-2-butynyl]-2-pyrrolidinone]
Ki [1, 3]: > 100 µM
Ki [2]: 1.82 µM

COC(=O)O[C@H]1CCN(CC#CCN2CCCC2)C1=O [(S)-Carbonic acid methyl 2-oxo-1-[4-(1-pyrrolidinyl)-2-butynyl]-3-pyrrolidinyl ester]
Ki [1, 3]: 5.4 µM and 10.4 µM

C[C@H]1CCN(CC#CCN(C)C)C1=O [(S)-1-[4-(Dimethylamino)-2-butynyl]-3-methyl-2-pyrrolidinone]
Ki [1, 3]: 35.5 µM
Ki [2]: 0.68 µM

CS[C@H]1CCN(CC#CCN(C)C)C1=O [(S)-1-[4-(Dimethylamino)-2-butynyl]-3-(methylthio)-2-pyrrolidinone]
Ki [1, 3]: > 100 µM
Ki [2]: 6.4 µM

CN(C)CC#CCN1CC[C@H](O[Si](C)(C)C(C)(C)C)C1=O [(S)-1-[4-(Dimethylamino)-2-butynyl]-3-[[(1,1-dimethylethyl)-dimethylsilyl]oxy]-2-pyrrolidinone]
Ki [1, 3]: 14.3 µM
Ki [2]: 18.2 µM

CC(=O)O[C@@H]1CCN(CC#CCN2CCC[C@H]2CO[Si](C)(C)C(C)(C)C)C1=O [[R-(R*,S*)]-3-(Acetoxy)-1-[4-[2-[[[(1,1-dimethylethyl)dimethylsilyl]oxy]methyl]-1-pyrrolidinyl]-2-butynyl]-1]-2-pyrrolidinone]
Ki [1, 3]: 500 µM
Ki [2]: 1.7 µM

CN(C)CC#CCN1CC[C@@H](N)C1=O [(R)-3-Amino-1-[4-(dimethylamino)-2-butynyl]-2-pyrrolidinone dihydrochloride]
Ki [1, 3]: > 100 µM
Ki [2]: 0.89 µM

CN(C)CC#CCN1CC[C@@H](OC(=O)C(C)(C)C)C1=O [(R)-2,2-Dimethylpropanoic acid 1-[4-(dimethylamino)-2-butynyl]-2-oxo-3-pyrrolidinyl ester]
Ki [1, 3]: 404 µM

CN(CC#CCN1CC[C@@H](O)C1=O)CCCCO [(R)-3-Hydroxy-1-[4-[(4-hydroxybutyl)methylamino]-2-butynyl]-2-pyrrolidinone]
Ki [1, 3]: > 100 µM
Ki [2]: 1.45 µM

CCCCCCCCOC(=O)O[C@H]1CCN(CC#CCN(C)C)C1=O [(S)-Carbonic acid 1-[4-(dimethylamino)-2-butynyl]-2-oxo-3-pyrrolidinyl octyl ester]
Ki [1, 3]: 10 µM
Ki [2]: 0.306 µM

N[C@@H]1CCN(CC#CCN2CCCC2)C1=O [(R)-3-Amino-1-[4-(1-pyrrolidinyl)-2-butynyl]-2-pyrrolidinone dihydrochloride]
Ki [1, 3]: 6.1 µM
Ki [2]: 0.35 µM

CN(CC#CCN1CC[C@@H](O)C1=O)CCO [(R)-3-Hydroxy-1-[4-[(2-hydroxyethyl)methylamino]-2-butynyl]-2-pyrrolidinone]
Ki [1, 3]: > 100 µM
Ki [2]: 1.8 µM

CS[C@@H]1CCN(CC#CCN2CCCC2)C1=O [(R)-3-(Methylthio)-1-[4-(1-pyrrolidinyl)-2-butynyl]-2-pyrrolidinone]
Ki [1, 3]: 3.6 µM
Ki [2]: 1.4 µM

CCCCCCCCNC(=O)O[C@H]1CC(=O)N(CC#CCN2CCCC2)C1 [(S)-Octylcarbamic acid 2-oxo-1-[4-(1-pyrrolidinyl)-2-butynyl]-4-pyrrolidinyl ester]
Ki [1, 3]: 0.13 µM
Ki [2]: 0.35 µM

CN(C)CC#CCN [N,N-Dimethyl-2-butyne-1,4-diamine dihydrochloride]
Ki [1, 3]: > 100 µM
Ki [2]: 20.5 µM

[N-]=[N+]=N[C@H]1CCN(CC#CCN2CCCC2)C1=O [(S)-3-Azido-1-[4-(1-pyrrolidinyl)-2-butynyl]-2-pyrrolidinone]
Ki [1, 3]: 3.14 µM
Ki [2]: 0.16 µM

CCN(CC)CC#CCNC(=O)C(F)(F)F [N-[4-(Diethylamino)-2-butynyl]-2,2,2-trifluoroacetamide monohydrochloride]
Ki [1, 3]: > 100 µM
Ki [2]: 4.07 µM

NCC#CCN1CCCC1 [4-(1-Pyrrolidinyl)-2-butyn-1-amine dihydrochloride]
Ki [1, 3]: > 100 µM
Ki [2]: 13 µM

CC(C)C(=O)O[C@@H]1CCN(CC#CCN(C)C)C1=O [(R)-Porpanoic acid 2-methyl-1-[4-(dimethylamino)-2-butynyl]-2-oxo-3-pyrrolidinyl ester]
Ki [1, 3]: 711 µM
Ki [2]: 26 µM

CC(=O)O[C@H]1CCN(CC#CCN(C)CCO)C1=O [(S)-3-(Acetyloxy)-1-[4-[2-(hydroxyethyl)methylamino]-2-butynyl]-2-pyrrolidinone]
Ki [1, 3]: > 100 µM
Ki [2]: 16.2 µM

CC(=O)O[C@@H]1CCN(CC#CCN2CCC[C@@H]2CO[Si](C)(C)C(C)(C)C)C1=O [[R-(R*,R*)]-3-Acetyloxy)-1-[4-[2-[[[(1,1-dimethylethyl)-dimethylsilyl]oxy]methyl]-1-pyrrolidinyl]-2-butynyl]-2-pyrrolidinone]
Ki [1, 3]: > 100 µM
Ki [2]: 10.1 µM

O=C1[C@H](O)CCN1CC#CCN1CCCC1 [(R)-3-Hydroxy-1-[4-(1-pyrrolidinyl)-2-butynyl]-2-pyrrolidinone]
Ki [1, 3]: 3.4 µM
Ki [2]: 0.125 µM

CN(C)CC#CCNC(=O)C(F)(F)F [N-[4-Dimethylamino)-2-butynyl]-2,2,2-trifluoroacetamide monomhydrochloride]
Ki [1, 3]: > 100 µM
Ki [2]: 6.1 µM

CC(C)C(=O)O[C@H]1CCN(CC#CCN2CCCC2)C1=O [(S)-2-Methylpropanoic acid 2-oxo-1-[4-(1-pyrrolidinyl)-2-butynyl]-3-pyrrolidinyl ester]
Ki [1, 3]: 7.2 µM
Ki [2]: 0.162 µM

CC(C)(C)C(=O)O[C@H]1CCN(CC#CC[N+](C)(C)C)C1=O [(S)-4-[3-(2,2-Dimethyl-1-oxopropoxy)-2-oxo-1-pyrrolidinyl]-N,N, N-trimethyl-2-butyn-1-aminium iodide]
Ki [1, 3]: 478 µM
Ki [2]: 7.8 µM

O=C1C(O)CCN1CC#CCn1ccnc1 (stereo not drawn) [1-[4-(1H-Imidazol-1-yl)-2-butynyl]-3-hydroxy-2-pyrrolidinone]
Ki [1, 3]: > 100 µM
Ki [2]: 2 µM

CN(C)CC#CCN1CC[C@@H](O)C1=O [(R)-1-[4-Dimethylamino)-2-butynyl-3-hydroxy-2-pyrrolidinone]
Ki [1, 3]: 105 µM
Ki [2]: 0.54 µM

CC(C)C(=O)O[C@H]1CCN(CC#CCN(C)C)C1=O [(S)-2-Methylpropanoic acid 1-[4-(dimethylamino)-2-butynyl]-2-oxo-3-pyrrolidinyl ester]
Ki [1, 3]: 610 µM

From patent US5637731A (priority 1996, dated 1997)
